pIC50: −log10 of the molar value. Where a SMILES comes first, the peptide text is derived from it. [ ]: non-standard residue; d: D form. Hyp(2-Ph-quinolin-4-yl) = O=C(O)[C@@H]1C[C@@H](Oc2cc(-c3ccccc3)nc3ccccc23)CN1; Ac3c(1R,2S-2-vinyl) = C=C[C@@H]1C[C@]1(N)C(=O)O; Chg = N[C@H](C(=O)O)C1CCCCC1
Assay: Inhibitory activity against the hepatitis C virus NS3 protease was determined
Design: species or system Hepacivirus hominis

pIC50	Structure (SMILES)
3.74	CC(=O)N[C@H](C(=O)N[C@H](C(=O)N1CC(OCc2cccc3ccccc23)CC1C(=O)N[C@@]1(C(=O)O)C[C@@H]1C)C(C)C)C1CCCCC1 (single isomer, unassigned)
5.26	CC(=O)N[C@H](C(=O)N[C@H](C(=O)N1C[C@H](OCc2cccc3ccccc23)C[C@H]1C(=O)N[C@]1(C(=O)O)C[C@H]1C(C)C)C(C)C)C1CCCCC1
5.01	C=C[C@@H]1C[C@]1(NC(=O)C1CC(OCc2ccccc2)CN1C(=O)[C@@H](NC(=O)[C@@H](NC(C)=O)C1CCCCC1)C(C)C)C(=O)O (single isomer, unassigned)
4.09	CC(=O)N[C@H](C(=O)N[C@H](C(=O)N1C[C@H](OCc2cccc3ccccc23)C[C@H]1C(=O)N[C@@]1(C(=O)O)C[C@@H]1Cc1ccccc1)C(C)C)C1CCCCC1
3.48	CC(=O)N[C@H](C(=O)N[C@H](C(=O)N1CC(OCc2ccccc2)CC1C(=O)NC1(C(=O)O)CC1)C(C)C)C1CCCCC1 (single isomer, unassigned)
7.72	C=C[C@@H]1C[C@]1(NC(=O)[C@@H]1C[C@@H](Oc2cc(-c3ccccc3)nc3ccccc23)CN1C(=O)[C@@H](NC(=O)[C@@H](NC(C)=O)C1CCCCC1)C(C)C)C(=O)O (Ac-[Chg]V[Hyp(2-Ph-quinolin-4-yl)][Ac3c(1R,2S-2-vinyl)]-OH)
6.07	COc1ccc2c(OC3CC(C(=O)NC4(C(=O)O)CC4)N(C(=O)[C@@H](NC(=O)[C@@H](NC(C)=O)C4CCCCC4)C(C)C)C3)ccnc2c1 (single isomer, unassigned)
4.64	CCC[C@H](NC(=O)C1CC(OCc2cccc3ccccc23)CN1C(=O)[C@@H](NC(=O)[C@@H](NC(C)=O)C1CCCCC1)C(C)C)C(=O)O (single isomer, unassigned)
4.85	CC(=O)N[C@H](C(=O)N[C@H](C(=O)N1CC(OCc2cccc3ccccc23)CC1C(=O)NC1(C(=O)O)CC1)C(C)C)C1CCCCC1 (single isomer, unassigned)
4.66	CC(=O)N[C@H](C(=O)N[C@H](C(=O)N1C[C@H](OCc2cccc3ccccc23)C[C@H]1C(=O)N[C@]1(C(=O)O)C[C@H]1CCc1ccccc1)C(C)C)C1CCCCC1
4.66	CC(=O)N[C@H](C(=O)N[C@H](C(=O)N1CC(OCc2cccc3ccccc23)CC1C(=O)N[C@]1(C(=O)O)C[C@H]1C)C(C)C)C1CCCCC1 (single isomer, unassigned)
4.85	CC(=O)N[C@H](C(=O)N[C@H](C(=O)N1C[C@H](OCc2cccc3ccccc23)C[C@H]1C(=O)N[C@]1(C(=O)O)C[C@H]1Cc1ccccc1)C(C)C)C1CCCCC1
4.05	CC(=O)N[C@H](C(=O)N[C@H](C(=O)N1C[C@H](OCc2cccc3ccccc23)C[C@H]1C(=O)N[C@@]1(C(=O)O)C[C@@H]1CCc1ccccc1)C(C)C)C1CCCCC1
5.26	CCC[C@@H]1C[C@]1(NC(=O)C1CC(OCc2cccc3ccccc23)CN1C(=O)[C@@H](NC(=O)[C@@H](NC(C)=O)C1CCCCC1)C(C)C)C(=O)O (single isomer, unassigned)
3.51	CCC1(CC)C[C@]1(NC(=O)C1CC(OCc2cccc3ccccc23)CN1C(=O)[C@@H](NC(=O)[C@@H](NC(C)=O)C1CCCCC1)C(C)C)C(=O)O (single isomer, unassigned)
7.54	C=C[C@@H]1C[C@]1(NC(=O)C1CC(Oc2ccnc3cc(OC)ccc23)CN1C(=O)[C@@H](NC(=O)[C@@H](NC(C)=O)C1CCCCC1)C(C)C)C(=O)O (single isomer, unassigned)
6.26	CC(=O)N[C@H](C(=O)N[C@H](C(=O)N1CC(Oc2cc(-c3ccccc3)nc3ccccc23)CC1C(=O)NC1(C(=O)O)CC1)C(C)C)C1CCCCC1 (single isomer, unassigned)
4.39	CCC[C@H]1C[C@@]1(NC(=O)C1CC(OCc2cccc3ccccc23)CN1C(=O)[C@@H](NC(=O)[C@@H](NC(C)=O)C1CCCCC1)C(C)C)C(=O)O (single isomer, unassigned)
4.49	CC[C@H]1C[C@@]1(NC(=O)C1CC(OCc2cccc3ccccc23)CN1C(=O)[C@@H](NC(=O)[C@@H](NC(C)=O)C1CCCCC1)C(C)C)C(=O)O (single isomer, unassigned)
6.20	C=C[C@@H]1C[C@]1(NC(=O)C1CC(OCc2cccc3ccccc23)CN1C(=O)[C@@H](NC(=O)[C@@H](NC(C)=O)C1CCCCC1)C(C)C)C(=O)O (single isomer, unassigned)
3.85	CC(=O)N[C@H](C(=O)N[C@H](C(=O)N1CC(OCc2ccccc2)CC1C(=O)N[C@@H](CS)C(=O)O)C(C)C)C1CCCCC1 (single isomer, unassigned)
5.32	CC[C@@H]1C[C@]1(NC(=O)C1CC(OCc2cccc3ccccc23)CN1C(=O)[C@@H](NC(=O)[C@@H](NC(C)=O)C1CCCCC1)C(C)C)C(=O)O (single isomer, unassigned)
3.28	CCC[C@H](NC(=O)C1CC(OCc2ccccc2)CN1C(=O)[C@@H](NC(=O)[C@@H](NC(C)=O)C1CCCCC1)C(C)C)C(=O)O (single isomer, unassigned)
3.19	CC(=O)N[C@H](C(=O)N[C@H](C(=O)N1C[C@H](OCc2cccc3ccccc23)C[C@H]1C(=O)N[C@@]1(C(=O)O)C[C@@H]1C(C)C)C(C)C)C1CCCCC1

Reference: ChEMBL document CHEMBL1148308, “Peptide-based inhibitors of the hepatitis C virus NS3 protease: structure-activity relationship at the C-terminal position” (J Med Chem, 2004)
